Data set [1] concerns human control myotubes LHCN-M2. Briefly: In vitro toxicity in human myotubes, CytoTox 96 colorimetric assay. It counts as cell-based. The note with it: 24 hours of incubation. The method, then:
These assays were carried out in human control myotubes LHCN-M2 after 14 days in differentiation medium. To determine the toxicity of the different analyzed compounds, particularly AHK1 and AHK2 according to the invention, these compounds were added to the culture medium for 24 hours at 37° C. at different concentrations (0-2 mM). For comparison purposes, the same assay was performed by adding reference compound S-107. Cell viability was determined by means of Cytotox 96 (Promega) colorimetric assay following instructions in the manual.

Data set [2] relates to left ventricle of a rat heart. The note with it: concentrations of 10^-6 M; in vitro; without affecting left ventricular heart rate or pressure; cited from earlier work.
Data set [3] concerns the target T1, RyR1-calstabin1 interaction (Homo sapiens, UniProt P21817+P62942).
T1 construct: endogenous in cells; host or cells: LHCN-M2 human myotubes (differentiated for 9 days)
Briefly: RyR1-calstabin1 interaction by in situ PLA in human myotubes under SIN1 nitro-oxidative stress. It counts as cell-based. The note with it: pre-treated 12 hours at 150 nM; SIN1 5 mM 30 minutes; FIG. 3. The protocol:
This assay was carried out in human control myotubes LHCN-M2 after 9 days in differentiation medium. Said myotubes were pre-treated for 12 hours with compounds AHK1 and AHK2 at a concentration of 150 nM. After treatment, the myotubes were subjected to peroxynitrite-induced nitro-oxidative stress by means of the addition of SIN1 (5 mM) for 30 minutes. RyR1-calstabin colocalization was analyzed by means of the in situ proximity ligation technique (in situ PLA) for which Sigma's Duolink II Network Fluorescence Kit and RyR1- and calstabin 1-specific antibodies were used. This technique allows detecting the exact location of two antigens located at a distance less than 40 nm from one another. To determine RyR1-calstabin-1 colocalization, 3 photographs were quantified for each condition with about 9 myotubes per field, using Image J computer software (http://rsb.info.nih.gov/ij/download.html). The colocalization area in each image was normalized to the myosin expression area, which was determined by means of immunofluorescence with a fluorescein-conjugated specific antibody.

The subject of data set [4] is mdx mice. Briefly: Muscle degeneration/regeneration: percentage of central nuclei in muscle cryosections of mdx mice. It counts as in vivo, mouse. The note with it: 5-week treatment of mdx mice; 0.25 mg/mL in drinking water; FIG. 5. The method, then: After concluding the 5-week treatment, the tibialis anterior muscle was obtained and processed for subsequent biochemical and immunohistological analysis to determine the degree of muscle damage. Cell-death derived regeneration was determined in muscle cryosections by means of quantifying the percentage of central nuclei using standard immunofluorescence techniques for detecting collagen IV and cell nuclei.

The subject of data set [5] is mdx mice. Briefly: Grip strength of dystrophic mdx mice. The class given is in vivo, mouse. The note with it: 0.25 mg/mL in drinking water, one-month old mdx mice. The method, then: One-month old male dystrophic mdx mice supplied by Jackson Laboratory (https://www.jax.org/strain/001801) were used. The biological assays for measuring the effect of the Ahulken (AHK) compounds on muscle function were performed with one-month old mice, whereas the in vivo assays for determining the effect on the heart and CNS were performed with four-month old mice. The one-month old mice were treated with compound AHK1 or compound AHK2 for 5 weeks, where said compounds were administered in drinking water at a concentration of 0.25 mg/mL. The muscle strength of the front paws was measured every week using a grip strength meter and the obtained value was normalized by the body weight of the animal. To that end, the indications described in the TREAT-NMD Neuromuscular Network protocol (http://www.treat-nmd.eu/downloads/file/sops/dmd/MDX/DMD_M.2.2.001.pdf) were followed.

Data set [6] has as its system mdx mice. Briefly: Isoproterenol-induced cardiomyopathy in mdx mice (Evans Blue uptake). It counts as in vivo, mouse. The note with it: four-month old mdx mice; 5-week treatment, 0.25 mg/mL in drinking water; FIG. 8. The protocol:
The myocardium of the four-month old dystrophic mdx mice is highly susceptible to mechanical stress and the compound isoproterenol induces cardiomyopathy in these mice (FIG. 8). Cardiomyocyte sarcolemma integrity was determined by means of measuring the uptake of Evans Blue dye that accumulates in cardiomyocytes with membrane damage. Evans Blue was administered 24 hours before extracting the hearts at a concentration of 10 mg/ml by means of intraperitoneal injection (10 μl/g of body weight). Damage with isoproterenol was carried out by means of 3 sequential intraperitoneal injections of beta-isoproterenol (350 ng/g of body weight) 18, 20 and 22 hours after administering Evans Blue in order to determine the degree of muscle damage. Cell-death derived regeneration was determined in muscle cryosections by means of quantifying the percentage of central nuclei, using standard immunofluorescence techniques for detecting collagen IV and cell nuclei.

In data set [7] the test system is mdx mice. Briefly: Exacerbated defense response (freezing) after acute stress in mdx mice. The note with it: four-month old mdx mice; five-week treatment, 0.25 mg/mL in drinking water; FIG. 7. It counts as in vivo, mouse. The protocol:
To determine the effect of the compounds according to the invention on the heart and CNS, four-month old mice were treated for 5 weeks with compound AHK2 in drinking water at a concentration of 0.25 mg/mL. The four-month old mdx mice show an exacerbated defense response after acute stress which is independent of motor, cardiac and respiratory deficiencies, and is controlled by central mechanisms (FIG. 7). Acute stress was brought about by means of manual immobilizations for 15 seconds in a posture commonly used for performing intraperitoneal injections. After acute stress, the mice are monitored for 1 minute and the % of freezing time or tonic immobility periods of at least 1 second with 90% immobility sensitivity is calculated.

Data set [8] concerns fibers isolated from mouse flexor digitorum brevis muscle (dystrophic MDX fibers). Briefly: Baseline intracellular calcium levels in mouse muscle fibers (Fura 2-AM). The class given is cell-based. The note with it: 150 nM, overnight treatment; FIG. 2. The method, then: Fibers isolated from mouse flexor digitorum brevis muscle were cultured overnight in the presence or absence of compounds AHK1 and AHK2 at a concentration of 150 nM. Baseline intracellular calcium levels were evaluated by means of incubating the fibers with Fura 2-AM ratiometric fluorochrome (4 μM) and pluronic acid (0.02%) for 30 minutes at 37° C., in the culture medium. The fibers were viewed with a high-resolution digital camera and intracellular [Ca^2+] was estimated by means of a 340 nm/380 nm excitation ratio.
On the technique in general: Calcium assays in cells follow changes in intracellular calcium, usually with a dye or a luminescent sensor.

T1 sequence (P21817 whole entry): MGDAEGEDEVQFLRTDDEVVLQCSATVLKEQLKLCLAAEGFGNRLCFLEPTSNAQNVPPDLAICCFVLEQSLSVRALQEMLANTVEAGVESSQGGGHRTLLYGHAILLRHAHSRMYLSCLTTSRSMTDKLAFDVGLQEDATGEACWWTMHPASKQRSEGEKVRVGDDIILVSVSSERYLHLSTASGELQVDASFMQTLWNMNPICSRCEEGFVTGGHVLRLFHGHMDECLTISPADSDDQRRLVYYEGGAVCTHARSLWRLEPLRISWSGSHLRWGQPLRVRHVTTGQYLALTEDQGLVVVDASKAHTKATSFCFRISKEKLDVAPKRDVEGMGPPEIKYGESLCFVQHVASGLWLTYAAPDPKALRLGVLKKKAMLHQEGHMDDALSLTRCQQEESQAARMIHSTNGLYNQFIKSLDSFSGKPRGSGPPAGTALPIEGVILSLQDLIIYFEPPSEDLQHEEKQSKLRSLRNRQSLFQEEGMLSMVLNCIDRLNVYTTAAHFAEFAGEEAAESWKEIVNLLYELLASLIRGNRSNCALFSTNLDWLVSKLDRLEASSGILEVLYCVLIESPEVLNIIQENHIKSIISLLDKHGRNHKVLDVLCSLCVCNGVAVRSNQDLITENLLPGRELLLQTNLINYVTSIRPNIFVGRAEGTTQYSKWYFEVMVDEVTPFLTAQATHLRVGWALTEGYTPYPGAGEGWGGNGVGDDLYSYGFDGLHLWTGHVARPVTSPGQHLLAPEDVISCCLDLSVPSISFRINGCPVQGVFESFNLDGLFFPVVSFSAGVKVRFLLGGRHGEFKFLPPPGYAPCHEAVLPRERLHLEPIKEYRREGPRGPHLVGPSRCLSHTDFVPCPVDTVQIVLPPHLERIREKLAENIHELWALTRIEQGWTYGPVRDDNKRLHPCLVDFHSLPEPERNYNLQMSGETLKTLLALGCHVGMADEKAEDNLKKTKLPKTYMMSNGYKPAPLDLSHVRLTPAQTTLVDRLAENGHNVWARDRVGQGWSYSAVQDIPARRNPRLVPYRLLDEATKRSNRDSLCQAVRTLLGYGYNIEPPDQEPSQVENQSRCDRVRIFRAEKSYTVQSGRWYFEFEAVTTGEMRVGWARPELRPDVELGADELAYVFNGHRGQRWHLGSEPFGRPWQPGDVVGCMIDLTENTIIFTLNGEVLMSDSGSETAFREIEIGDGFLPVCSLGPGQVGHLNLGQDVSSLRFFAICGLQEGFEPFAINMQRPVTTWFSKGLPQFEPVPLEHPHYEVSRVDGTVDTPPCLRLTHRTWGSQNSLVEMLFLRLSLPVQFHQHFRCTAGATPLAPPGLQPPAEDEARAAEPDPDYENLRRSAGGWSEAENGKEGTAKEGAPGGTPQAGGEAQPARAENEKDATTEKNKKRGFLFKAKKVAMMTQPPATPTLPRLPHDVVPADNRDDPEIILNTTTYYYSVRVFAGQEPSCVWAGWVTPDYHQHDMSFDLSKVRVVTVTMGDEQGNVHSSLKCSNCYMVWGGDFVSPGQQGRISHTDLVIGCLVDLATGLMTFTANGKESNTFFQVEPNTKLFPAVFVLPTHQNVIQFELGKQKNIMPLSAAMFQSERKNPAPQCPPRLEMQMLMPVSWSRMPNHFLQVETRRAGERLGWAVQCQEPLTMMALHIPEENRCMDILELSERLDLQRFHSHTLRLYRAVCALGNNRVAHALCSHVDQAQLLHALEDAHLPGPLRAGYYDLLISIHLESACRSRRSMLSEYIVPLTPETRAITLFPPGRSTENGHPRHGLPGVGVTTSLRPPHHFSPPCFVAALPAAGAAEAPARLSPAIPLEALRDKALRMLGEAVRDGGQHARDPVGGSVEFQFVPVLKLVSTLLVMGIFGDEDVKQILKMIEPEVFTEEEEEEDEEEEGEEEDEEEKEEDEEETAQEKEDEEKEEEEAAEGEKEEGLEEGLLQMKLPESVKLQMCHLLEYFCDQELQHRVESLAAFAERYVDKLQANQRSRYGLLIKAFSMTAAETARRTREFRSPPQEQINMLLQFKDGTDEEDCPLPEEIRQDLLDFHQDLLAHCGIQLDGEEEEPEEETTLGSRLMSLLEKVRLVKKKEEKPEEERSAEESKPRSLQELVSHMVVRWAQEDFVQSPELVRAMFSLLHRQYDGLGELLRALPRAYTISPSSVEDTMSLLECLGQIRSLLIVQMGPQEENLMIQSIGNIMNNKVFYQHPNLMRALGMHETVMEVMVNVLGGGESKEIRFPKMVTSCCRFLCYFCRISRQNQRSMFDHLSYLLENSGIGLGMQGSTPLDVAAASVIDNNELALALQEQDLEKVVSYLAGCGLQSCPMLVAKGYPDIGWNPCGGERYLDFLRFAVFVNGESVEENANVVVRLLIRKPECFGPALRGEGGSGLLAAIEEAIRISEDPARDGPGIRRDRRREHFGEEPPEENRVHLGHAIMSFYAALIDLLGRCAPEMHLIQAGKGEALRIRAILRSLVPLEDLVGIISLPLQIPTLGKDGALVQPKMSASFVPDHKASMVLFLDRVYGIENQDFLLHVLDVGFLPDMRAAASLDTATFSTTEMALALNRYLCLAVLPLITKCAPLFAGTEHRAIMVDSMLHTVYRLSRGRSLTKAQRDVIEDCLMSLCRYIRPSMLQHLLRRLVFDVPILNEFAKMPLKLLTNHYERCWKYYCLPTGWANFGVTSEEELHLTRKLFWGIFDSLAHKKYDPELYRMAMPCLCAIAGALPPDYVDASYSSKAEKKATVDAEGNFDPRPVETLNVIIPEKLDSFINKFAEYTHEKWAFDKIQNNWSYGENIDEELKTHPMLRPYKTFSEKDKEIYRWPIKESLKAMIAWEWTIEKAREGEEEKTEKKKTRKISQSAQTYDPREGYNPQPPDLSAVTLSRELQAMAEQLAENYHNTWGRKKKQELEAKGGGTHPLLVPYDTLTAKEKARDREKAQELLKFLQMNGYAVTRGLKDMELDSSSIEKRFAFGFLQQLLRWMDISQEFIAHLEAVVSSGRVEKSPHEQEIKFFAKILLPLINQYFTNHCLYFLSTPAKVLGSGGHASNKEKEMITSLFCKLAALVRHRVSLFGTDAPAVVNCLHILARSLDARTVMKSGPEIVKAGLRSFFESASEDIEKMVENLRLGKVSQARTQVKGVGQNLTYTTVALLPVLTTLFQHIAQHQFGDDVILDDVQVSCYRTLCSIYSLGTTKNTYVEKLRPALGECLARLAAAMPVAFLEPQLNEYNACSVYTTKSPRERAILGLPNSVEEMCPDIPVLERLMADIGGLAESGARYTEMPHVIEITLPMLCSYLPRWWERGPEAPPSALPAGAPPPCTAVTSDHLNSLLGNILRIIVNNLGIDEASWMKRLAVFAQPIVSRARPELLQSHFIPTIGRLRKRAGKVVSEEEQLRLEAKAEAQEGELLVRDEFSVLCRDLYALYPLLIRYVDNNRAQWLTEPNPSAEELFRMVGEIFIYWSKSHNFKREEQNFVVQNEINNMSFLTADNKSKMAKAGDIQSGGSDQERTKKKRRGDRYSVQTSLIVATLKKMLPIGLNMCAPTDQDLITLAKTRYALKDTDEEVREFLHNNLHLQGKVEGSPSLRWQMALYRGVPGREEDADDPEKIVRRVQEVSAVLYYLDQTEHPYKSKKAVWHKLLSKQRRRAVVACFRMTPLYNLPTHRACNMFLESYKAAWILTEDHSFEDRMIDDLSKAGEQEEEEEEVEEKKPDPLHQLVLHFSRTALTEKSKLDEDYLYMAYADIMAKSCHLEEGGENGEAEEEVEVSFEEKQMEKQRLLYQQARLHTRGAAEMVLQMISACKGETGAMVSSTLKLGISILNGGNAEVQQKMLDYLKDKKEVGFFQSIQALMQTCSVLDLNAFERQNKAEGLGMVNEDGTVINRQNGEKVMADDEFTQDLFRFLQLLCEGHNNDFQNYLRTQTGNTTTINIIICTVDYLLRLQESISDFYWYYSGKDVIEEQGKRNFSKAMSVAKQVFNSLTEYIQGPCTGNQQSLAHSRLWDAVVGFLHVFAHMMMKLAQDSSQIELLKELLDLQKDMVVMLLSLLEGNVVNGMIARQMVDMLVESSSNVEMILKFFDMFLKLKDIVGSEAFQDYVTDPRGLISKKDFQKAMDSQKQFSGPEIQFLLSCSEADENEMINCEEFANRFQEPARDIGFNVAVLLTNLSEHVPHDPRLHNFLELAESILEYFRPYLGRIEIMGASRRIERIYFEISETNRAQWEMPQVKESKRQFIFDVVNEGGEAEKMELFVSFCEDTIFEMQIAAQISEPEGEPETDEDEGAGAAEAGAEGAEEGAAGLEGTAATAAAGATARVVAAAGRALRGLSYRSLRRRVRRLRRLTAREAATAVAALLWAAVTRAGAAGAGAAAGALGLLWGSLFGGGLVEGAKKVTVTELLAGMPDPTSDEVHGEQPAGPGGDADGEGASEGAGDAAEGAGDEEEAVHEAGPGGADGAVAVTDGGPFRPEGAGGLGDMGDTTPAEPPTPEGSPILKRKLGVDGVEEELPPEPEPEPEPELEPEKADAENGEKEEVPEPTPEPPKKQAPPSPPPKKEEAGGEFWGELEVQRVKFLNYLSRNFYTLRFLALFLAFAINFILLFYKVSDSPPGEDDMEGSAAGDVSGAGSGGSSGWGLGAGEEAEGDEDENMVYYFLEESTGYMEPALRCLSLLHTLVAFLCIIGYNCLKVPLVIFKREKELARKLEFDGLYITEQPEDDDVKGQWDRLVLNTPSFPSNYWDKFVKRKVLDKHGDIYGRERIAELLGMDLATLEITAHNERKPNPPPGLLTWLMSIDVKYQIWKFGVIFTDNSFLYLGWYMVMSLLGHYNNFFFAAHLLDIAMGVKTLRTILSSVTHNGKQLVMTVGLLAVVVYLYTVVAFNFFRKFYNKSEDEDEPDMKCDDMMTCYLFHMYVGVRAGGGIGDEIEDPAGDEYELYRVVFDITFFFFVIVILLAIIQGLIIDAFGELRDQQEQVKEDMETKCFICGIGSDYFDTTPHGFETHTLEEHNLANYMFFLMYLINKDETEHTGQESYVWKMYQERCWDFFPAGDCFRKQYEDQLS
T1 sequence (P62942 2-108 limits assumed): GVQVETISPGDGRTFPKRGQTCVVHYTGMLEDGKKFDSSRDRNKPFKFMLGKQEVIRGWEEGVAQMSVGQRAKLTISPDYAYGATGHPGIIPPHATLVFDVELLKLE

On to `O=C(O)Cn1cc(CSc2cccc(Cl)c2)nn1` [Example 23, 1-carboxymethyl-4-[3-(chloro)phenylthiomethyl]-1H-1,2,3-triazole], for which the melting point (usually the temperature of the solid-liquid transition) was 146 to 148 °C.

`COc1ccc(SCc2cn(CC(=O)O)nn2)cc1` [Example 11, 1-carboxymethyl-4-[4-(methoxy)phenylthiomethyl]-1H-1,2,3-triazole] registered a melting point of 163 to 170 °C.

Compound `COc1ccc2c(c1)CN(C)CCS2` [Example S-107, reference compound] registered a cellular toxicity in [1] (concentration of 1 mM) of 100%.

For the compound “4-[3-(4-benzylpiperidinyl)-propanoyl]-2,3,4,5-tetrahydro-1,4-benzothiazepine [JTV-519]”, the “adrenaline- and caffeine-induced myocardial necrosis” value in [2] is “inhibits”.

`COc1cccc(S(=O)(=O)Cc2cn(CC(=O)O)nn2)c1` [Example 22, 1-carboxymethyl-4-[3-(methoxy)phenylsulfonylmethyl]-1H-1,2,3-triazole] gave a melting point of 106 to 115 °C.

In the case of `COc1ccc(SCc2cn(CCN(C)C)nn2)cc1` [AHK2, 1-[2-(N,N-dimethylamino)ethyl]-4-[4-(methoxy)phenylthiomethyl]-1H-1,2,3-triazole], the “dissociation of the RyR1-Calst1 complex in the presence of SIN1” value in data set [3] is recorded as “partially prevented”. Also, the “percentage of central nuclei” value in the data set on mdx mice [4] is recorded as “significantly reduced”. In data set [1] (concentrations between 10 nM and 2 mM, FIG. 1), the “in vitro acute toxicity against human myotubes” value is “do not show in vitro acute toxicity”. The “grip strength compared to untreated littermates” value in the data set on mdx mice [5] (after 2 weeks of treatment) is recorded as “increased significantly”. The “increase of muscle strength” value with mdx mice [5] (after 5 weeks of treatment, FIG. 4) came to 20%. Further, in the data set with mdx mice [6], the “cardiomyocyte sarcolemma integrity (Evans Blue uptake)” value was “increases” and the “isoproterenol-induced damage of the myocardium” value is given as “protects the myocardium from isoproterenol-induced damage”. Also, the “exacerbated defense response-related CNS phenotype (% of freezing time after acute stress)” value in the data set on mdx mice [7] is recorded as “significantly improves”. Also, the “intracellular calcium levels at rest in MDX fibers” value in data set [8] was “brought intracellular calcium levels back to the control levels”.

(Values after patent publication US11377427B2, “Triazoles for regulating intracellular calcium homeostasis” (UNIVERSIDAD DEL PAIS VASCO, priority 2016, dated 2022).)
